Data taken from the Kinase Knowledgebase extract (Sharma et al. 2016).

The compounds below were run against MAPK14;MAPK11;MAPK12 (human) (UniProt Q16539) (assay: Inhibition of p38 Kinase Activity).

Structure (SMILES)	IC50 [nM]
CONC(=O)c1ccc(C)c(Nc2nc(N(C)C)nc(N(C)CC(C)(C)C)n2)c1	< 1000
CCONC(=O)c1ccc(C)c(Nc2nc(N[C@H]3CCNC3)nc(N(C)CC(C)(C)C)n2)c1	< 1000
CC(=O)N(C)CCCN(C)c1nc(NCC(C)c2ccccc2)nc(Nc2ccc3ncsc3c2)n1 (stereo not drawn)	< 10000
CC(CNc1nc(Nc2ccc3ncsc3c2)nc(N2CC3CC2CN3C(=N)N)n1)c1ccccc1 (stereo not drawn)	< 10000
CCNC(=O)c1ccc(C)c(Nc2nc(N[C@H]3CCNC3)nc(N(C)CC(C)(C)C)n2)c1	< 1000
CC1(C)C2CCC(CNc3nc(Nc4ccc5ncsc5c4)cc(N4CCNCC4)n3)C1C2 (stereo not drawn)	< 10000
Cc1ccc(C(N)=O)cc1Nc1nc(N)nc(NC[C@@H]2CC[C@H]3C[C@@H]2C3(C)C)n1	< 1000
Cc1cc2c(cc1Nc1nc(NCC(C)(C)C)nc(N[C@H]3CCNC3)n1)C(=O)NC2	< 1000
CC(CNc1nc(Nc2ccc3ncsc3c2)nc(N2CC3CC2CN3S(=O)(=O)N(C)C)n1)c1ccccc1 (stereo not drawn)	< 10000
C=CCN1CC[C@H](Nc2nc(Nc3cc(C(=O)NC(C)C)ccc3C)nc(N(C)CC3CCCC3)n2)C1	< 1000
CNC(=O)c1ccc(C)c(Sc2nc(NCc3ccccn3)nc(N(C)CC(C)(C)C)n2)c1	< 30000
Cc1ccc(-c2nn(C)c(=O)[nH]2)cc1Nc1nc(N(C)CC(C)(C)C)nc(N2CCCN(C)CC2)n1	< 1000
Cc1ccc(CN2CC[C@H](Nc3nc(Nc4cc(C(N)=O)ccc4C)nc(N(C)CC(C)C)n3)C2)cc1	< 1000
CONC(=O)c1ccc(C)c(Sc2nc(N(C)CC(C)(C)C)nc(N3CCCN(C)CC3)n2)c1	< 30000
CC(C)c1nc(Cl)nc(Nc2ccc3ncsc3c2)n1	< 10000
CCCCNC(=O)c1ccc(C)c(Nc2nc(N[C@H]3CCNC3)nc(N(C)CC(C)(C)C)n2)c1	< 1000
Cc1ccc(C(=O)NC#N)cc1Nc1nc(N[C@H]2CCNC2)nc(N(C)CC(C)(C)C)n1	< 1000
Cc1ccc(C(N)=O)cc1Nc1nc(N[C@H]2CCCC[C@H]2N)nc(N(C)CC(C)C)n1	< 1000
Cc1ccc(C(N)=O)cc1Nc1nc(N[C@H]2CCNC2)nc(SCC(C)C)n1	< 1000
Cc1ccc2c(c1)ncn2-c1nc(F)cc(NCCOC(C)C)n1	< 10000
CCC(C)N1CC[C@@H](Nc2nc(Nc3cc(C(N)=O)ccc3C)nc(N(C)CC(C)(C)C)n2)C1 (stereo partly drawn)	< 1000
Cc1ccc(C(N)=O)cc1Nc1nc(N[C@H]2CCN(C(C)C)C2)nc(N(C)CC(C)C)n1	< 1000
CCN1CCC[C@@H](Nc2nc(Nc3cc(C(N)=O)ccc3C)nc(N(C)CC(C)(C)C)n2)C1	< 1000
CONC(=O)c1ccc(C)c(Nc2nc(NCc3ccccc3)nc(N(C)CC(C)(C)C)n2)c1	< 1000

Structure (SMILES)	IC50 [nM]
c1nc2ccc(Nc3nc(CCC4CCCCC4)nc(N4CCNCC4)n3)cc2s1	< 10000
COCCC(=O)N1CC[C@@H](Nc2nc(Nc3cc(C(N)=O)ccc3C)nc(N(C)CC(C)C)n2)C1	< 1000
CONC(=O)c1ccc(C)c(Nc2nc(N(C)CC(C)(C)C)nc(-n3ccnc3)n2)c1	< 1000
CCONC(=O)c1ccc(C)c(Nc2nc(N[C@H]3CCNC3)nc(N(C)CC(C)C)n2)c1	< 1000
CCCCOc1nc(Nc2cc(C(N)=O)ccc2C)nc(NC2CCCC2)n1	< 1000
CC(C)Oc1nc(NCC(C)c2ccccc2)nc(Nc2ccc3ncsc3c2)n1 (stereo not drawn)	< 10000
CNC1CCN(c2cc(NCCOC(C)C)nc(-n3cnc4ccc(C)cc43)n2)C1 (stereo not drawn)	< 10000
Cc1ccc(C(N)=O)cc1Nc1nc(NC[C@H]2CCCN2)nc(N(C)CC(C)C)n1	< 1000
Cc1ccc(C(N)=O)cc1Nc1nc(N[C@H]2CCN(C)C2)nc(N(C)CC(C)(C)C)n1	< 1000
Cc1ccc(C(N)=O)cc1Nc1nc(NC2CCCCNC2)nc(N(C)CC(C)(C)C)n1 (stereo not drawn)	< 1000
COC(=O)CC(CNc1nc(Cl)nc(Nc2ccc3ncsc3c2)n1)c1ccc(Cl)cc1 (stereo not drawn)	< 10000
CCCCN(C)c1nc(Nc2cc(C(N)=O)ccc2C)nc(N[C@H]2CCNC2)n1	< 1000
Cc1ccccc1NC(=O)N1CC2CC1CN2c1nc(NCC(C)c2ccccc2)nc(Nc2ccc3ncsc3c2)n1 (stereo not drawn)	< 10000
CCC(C)CNc1nc(Nc2cc(C(N)=O)ccc2C)nc(N[C@H]2CCNC2)n1 (stereo partly drawn)	< 1000
COC1CCCC(C(=O)N2CCN(c3nc(NCC(C)c4ccccc4)nc(Nc4ccc5ncsc5c4)n3)CC2)C1 (stereo not drawn)	< 10000
Cc1ccc(C(N)=O)cc1Nc1nc(N[C@H]2CCNC2)nc(N(C)C[C@H](C)c2ccccc2)n1	< 1000
Cc1ccc(CC2CC(Nc3nc(Nc4cc(C(N)=O)ccc4C)nc(N(C)CC(C)(C)C)n3)CN2)cc1 (stereo not drawn)	< 1000
Cc1ccc(C(N)=O)cc1Nc1nc(N[C@@H]2CCNC2)nc(N2CCC(C)(C)CC2)n1	< 1000
CC(CNc1nc(Cl)nc(Nc2ccc3ncsc3c2)n1)c1ccccc1 (stereo not drawn)	< 10000
Cc1ccc(C(N)=O)cc1Nc1nc(NC(C)C2CCCCC2)nc(N[C@H]2CCNC2)n1 (stereo partly drawn)	< 1000
Cc1ccc(C(N)=O)cc1Nc1nc(N[C@H]2CCN(Cc3ccccc3O)C2)nc(N(C)CC(C)C)n1	< 1000
Cc1ccc(C)c(CN2CC[C@H](Nc3nc(Nc4cc(C(N)=O)ccc4C)nc(N(C)CC(C)C)n3)C2)c1	< 1000
CC1(C)C2CCC(CNc3cc(Nc4ccc5ncsc5c4)nc(N4CCNCC4)n3)C1C2 (stereo not drawn)	< 10000
COC(=O)Nc1ccc(C)c(Nc2nc(N[C@H]3CCNC3)nc(N(C)CC(C)(C)C)n2)c1	< 1000

Structure (SMILES)	IC50 [nM]
CONC(=O)c1ccc(C)c(Nc2nc(NCCNc3ccccc3)nc(N(C)CC(C)(C)C)n2)c1	< 1000
CCNC(=O)N1CCN(c2nc(NC[C@@H]3CC[C@H]4C[C@@H]3C4(C)C)nc(Nc3ccc4ncsc4c3)n2)CC1	< 10000
CCONC(=O)c1ccc(C)c(Nc2nc(N)nc(N(C)CC(C)(C)C)n2)c1	< 1000
CONC(=O)c1ccc(C)c(Nc2nc(NCC3CCC(=O)N3)nc(N(C)CC(C)(C)C)n2)c1 (stereo not drawn)	< 1000
Cc1ccc(C(N)=O)cc1Nc1nc(Cl)nc(N[C@@H]2CCNC2)n1	< 1000
CC1(C)[C@H]2CC[C@@H](CNc3nc(Cl)nc(Nc4ccc5ncsc5c4)n3)[C@@H]1C2	< 10000
Clc1nc(Nc2ccc3ncsc3c2)nc(N2CCC3CCCCC3C2)n1 (stereo not drawn)	< 10000
CC(C)CN(C)c1nc(Nc2cc(C(N)=O)ccc2C(F)(F)F)nc(N[C@H]2CCNC2)n1	< 1000
CC1(C)C2CCC(CNc3nc(N)nc(Nc4ccc(S(=O)(=O)N(C=O)c5ncccn5)cc4)n3)C1C2 (stereo not drawn)	< 10000
CC(CN(C)c1nc(Nc2ccc3ncsc3c2)nc(N(C)C)n1)c1ccccc1 (stereo not drawn)	< 10000
Cc1ccc(-c2ncc[nH]2)cc1Nc1nc(N[C@@H]2CCNC2)nc(N(C)CC(C)(C)C)n1	< 1000
CN(CC1CCC2CC1C2(C)C)c1nc(Nc2ccc3ncsc3c2)nc(N2CCNCC2)n1 (stereo not drawn)	< 10000
NC(=O)C1CCN(c2nc(Nc3ccc4ncsc4c3)cc(NC3CCC3)n2)CC1	< 10000
Cc1ccc(C(N)=O)cc1Nc1nc(NCC23CC4CC(CC(C4)C2)C3)nc(NC2CCNC2)n1 (stereo not drawn)	< 1000
Cc1ccc(C(N)=O)cc1Nc1nc(N[C@H]2CCN(Cc3cccc(Cl)c3)C2)nc(N(C)CC(C)C)n1	< 1000
Cc1ccc(C(N)=O)cc1Nc1nc(NC2CCN(Cc3ccc(C(F)(F)F)cc3)C2)nc(N(C)CC(C)C)n1 (stereo not drawn)	< 1000
Cc1ccc(C(N)=O)cc1Nc1nc(N[C@H]2CCN(C(=O)c3ccccn3)C2)nc(N(C)CC(C)C)n1	< 1000
CC(CNc1nc(Nc2ccc3ncsc3c2)nc(N(C)C)n1)c1ccc(Cl)cc1 (stereo not drawn)	< 10000
COc1cccc(NC(=O)c2ccc(C)c(Nc3nc(N[C@H]4CCNC4)nc(N(C)CC(C)(C)C)n3)c2)c1	< 1000
CC1(C)C2CCC(CNc3nc(Nc4ccc5[nH]nnc5c4)nc(N4CCNCC4)n3)C1C2 (stereo not drawn)	< 10000
CONC(=O)c1ccc(C)c(Sc2nc(NCc3ccccn3)nc(N(C)CC(C)(C)C)n2)c1	< 30000
O=C(O)CCC(=O)N1CCN(c2nc(Nc3ccc4ncsc4c3)nc(NC3CCc4ccccc43)n2)CC1 (stereo not drawn)	< 10000
Cc1ccc2c(c1Nc1nc(N[C@H]3CCNC3)nc(N(C)CC(C)(C)C)n1)CNC2=O	< 1000
CC(Cc1ccccc1)Nc1nc(Nc2ccc3ncsc3c2)nc(N2CCNCC2)n1 (stereo not drawn)	< 10000

Structure (SMILES)	IC50 [nM]
CNc1nc(Nc2cc(C(N)=O)ccc2C)nc(N[C@H]2CCNC2)n1	< 1000
Cc1ccc(C(N)=O)cc1Nc1nc(NC2CCN(Cc3ccccc3)C2)nc(N(C)CC(C)(C)C)n1 (stereo not drawn)	< 1000
CCOC(=O)Nc1ccc(C)c(Nc2nc(NCCN3CCCC3)nc(N(C)CC(C)(C)C)n2)c1	< 1000
CCN1CC[C@@H](Nc2nc(Nc3cc(C(N)=O)ccc3C)nc(N(C)CC(C)(C)C)n2)C1	< 1000
Cc1ccc(C(N)=O)cc1Nc1nc(NC2CCN(Cc3ccccc3)C2)nc(N(C)CC(C)C)n1 (stereo not drawn)	< 1000
CCONC(=O)c1ccc(C)c(Nc2nc(N[C@@H]3CCNC3)nc(N(C)CC(C)C(F)(F)F)n2)c1 (stereo partly drawn)	< 1000
CNCCN(C)c1nc(NCc2ccc3c(c2)OCO3)nc(NCC(C)c2ccccc2)n1 (stereo not drawn)	< 10000
CC(CNc1nc(Nc2ccc3ncsc3c2)nc(N(C)CCCN(C)C(=S)NC2CCCCC2)n1)c1ccccc1 (stereo not drawn)	< 10000
COCCNC(=O)c1ccc(C)c(Nc2nc(N[C@H]3CCNC3)nc(N(C)CC(C)(C)C)n2)c1	< 1000
CC1(C)C2CCC(CNc3nc(Nc4ccc5scnc5c4)nc(N4CCNCC4)n3)C1C2 (stereo not drawn)	< 10000
CONC(=O)c1ccc(C)c(Nc2nc(N(C)CC(C)(C)C)nc(N3CCCCC3)n2)c1	< 1000
CONC(=O)c1ccc(C)c(Nc2nc(N[C@H]3CCN(C)C3)nc(N(C)CC(C)(C)C)n2)c1	< 1000
CN(CCN(C)c1nc(NCC2CCC3CC2C3(C)C)nc(Nc2ccc3ncsc3c2)n1)C(=O)CCC(=O)O (stereo not drawn)	< 10000
Cc1ccc(C(N)=O)cc1Nc1nc(NC2CCN(C)C2)nc(N(C)CC(C)C)n1 (stereo not drawn)	< 1000
CCOC(=O)Nc1ccc(C)c(Nc2nc(N[C@H]3CCNC3)nc(N(C)CC(C)(C)C)n2)c1	< 1000
CONC(=O)c1ccc(C)c(Nc2nc(Cl)nc(N(C)CC(C)(C)C)n2)c1	< 1000
Cc1ccc(C(N)=O)cc1Nc1nc(NCC(C)(C)C)nc(N[C@H]2CCNC2)n1	< 1000
CCC(CNc1nc(Cl)nc(Nc2ccc3ncsc3c2)n1)c1ccccc1 (stereo not drawn)	< 10000
CCONC(=O)c1ccc(C)c(Nc2cc(N3CCCN(C)CC3)nc(N(C)CC(C)(C)C)n2)c1	< 1000
CNCCN(C)c1nc(NCc2ccc(Cl)c(Cl)c2)nc(Nc2ccc3ncsc3c2)n1	< 10000
Cc1ccc(C(N)=O)cc1Nc1nc(N[C@@H]2CCNC2)nc(N2CCCC(C(N)=O)C2)n1 (stereo partly drawn)	< 1000
